Data as given in patent publication US5206232A, “Fungicidal imidazole complexes” (priority 1990, dated 1993).

How the values were obtained:
powdery mildew = test: Fungicidal activity against powdery mildew on inoculated cucumber plants (disease index); format: in vivo, Sphaerotheca fuliginia; details: cucumbers, letters in the cell = significance groups (P = 0.05)
Experimental: Cucumbers sensitive to powdery mildew were sprouted in trays and then transferred to pots of 16 cm diameter, two plants per pot. They were kept in a hot-house at 18° C.-25° C. at a relative humidity of 60%-70%. The cucumber plants were contaminated with powdery mildew collected from pumpkin leaves by passing the contaminated leaf over the leaves of the plants to be tested and the plants then sprayed with water. First treatment was with the first appearance of the disease, by spraying until dripping. All treatments were at a concentration of 0.03%, except for the commercial Myclobutanal (a systemic fungicide of Rohm and Haas Co.), where a concentration of 0.006% was used. The status of the disease was determined by three different people. The experiment was conducted in blocks, at random, with repetitions. Four blocks of four repetitions of ten treatments (total 160 pots) at three evaluation periods.

coffee berry disease = test: Activity against coffee berry disease (inhibition of sporulation on colonized branch sections); format: in vivo, Colletotrichum coffeanum; details: for Per Cent Active Ingredient for 80% Inhibition: 80% inhibition of sporulation, by linear regression of dose response curves, three days incubation
Experimental: The zinc complex of prochloraz was tested for its activity against coffee berry disease as follows:
Approximately 3.5 mm sections of colonized branches are washed in a solution of Teepol or similar wetting agent to remove any initial spore load. Sections are laid on moistened cellosine wadding in plastic boxes, 12 sections per box. Three boxes are sprayed with each concentration of the candidate material, closed and incubated for three days. After incubation the spores are removed by vigorous shaking of each of the 12 twigs in 10 ml water and are counted, using a haemocytometer slide. The sections of the branch are measured and their volume taken by displacement. The parameters measured were concentration of the formulation and expressed as percent active ingredient (A.I.) and percent inhibition of sporulation. The inhibition of sporulation was expressed in relation to the sporulation of unsprayed control and folpet as the standard fungicide. Each determination was done in triplicate and repeated at least three times. The dose response curves were analyzed by linear regression and the different formulations were compared at the 80% inhibition point.

crops = details: free, non-complexed prochloraz vs metal complexes; susceptible crops; cited from earlier work
[1] = 0.03% spray, key 0 = clean, 1 = 10%-20% sick, 2 = 20%-30%, 3 = 30%-40%, 4 = 40%-50%, 5 = over 50% sick
[2] = 0.006% spray (commercial standard), key 0 = clean to 5 = over 50% sick

Molecule	Disease Index 7 Days After Treatment (powdery mildew; [1])	Disease Index 14 Days After Treatment (powdery mildew; [1])	Per Cent Active Ingredient for 80% Inhibition (coffee berry disease)	also measured
Bis-[1-{N-propyl-N-2-(2,4,6-trichlorophenoxy)-ethyl-carbamoyl}-imidazole]-cobalt (II) chloride complex [CoCl2 complex of Prochloraz]	2.06	1.38	–	–
CCCN(CCOc1c(Cl)cc(Cl)cc1Cl)C(=O)n1ccnc1.CCCN(CCOc1c(Cl)cc(Cl)cc1Cl)C(=O)n1ccnc1.[Cl][Zn][Cl] [ZnCl2 complex of Prochloraz, Bis-[1-{N-propyl-N-2-(2,4,6-trichlorophenoxy)-ethyl-carbamoyl}-imidazole]-zinc chloride complex]	1.63	0.94	0.09 Per Cent Active Ingredient	activity against coffee berry disease (in words) (coffee berry disease; especially as compared to known commercial metal complexes): very good activity; activity against coffee berry disease compared to commercial "Octave" (coffee berry disease; relative to Octave, at 80% inhibition point): more than two times greater
CCCCC(C#N)(Cn1cncn1)c1ccc(Cl)cc1 (racemic) [Myclobutanol, reference compound]	–	–	–	Disease Index 7 Days After Treatment (powdery mildew; [2]): 1.34; Disease Index 14 Days After Treatment (powdery mildew; [2]): 0.81
CCCN(CCOc1c(Cl)cc(Cl)cc1Cl)C(=O)n1ccnc1.CCCN(CCOc1c(Cl)cc(Cl)cc1Cl)C(=O)n1ccnc1.[Cl][Sn][Cl] [SnCl2 complex of Prochloraz, Bis-[1-{N-propyl-N-2-(2,4,6-trichlorophenoxy)-ethyl-carbamoyl}-imidazole]-tin(II) chloride complex]	–	0.78	–	–
O=C1c2ccccc2C(=O)N1SC(Cl)(Cl)Cl [Folpet, reference compound]	–	–	0.62 Per Cent Active Ingredient	–
CCCN(CCOc1c(Cl)cc(Cl)cc1Cl)C(=O)n1ccnc1 [prochloraz, 1-[N-propyl-N-2-(2,4,6-trichlorophenoxy)-ethyl-carbamoyl]-imidazole]	–	–	–	phytotoxicity (crops): phytotoxic to some crops
